From patent US20050075375A1 (priority 2003, published 2005)

Test system: monocistronic NK5.1 HCV replicon in Huh7 cells
Test: HCV replicon assay, monocistronic replicon cell line
Assay type: cell-based, hepatitis C virus
Conditions: Hepatitis C virus, Huh-7, 72 h; Table 1; monocistronic replicon in Huh7 cells, 3 days incubation, HCV RNA/GAPDH RNA by TaqMan RT-PCR; read-out: Mono EC50 Median
Text: HCV Replicon Assays (Replicon EC50 (μM))
HCV replication can be measured by a replicon assay such as described by Vrolijk et al, J. Virol. Methods 110:201(2003), which is hereby incorporated in its entirety by reference. The method was implemented as follows.
Monocistronic Replicon Cell Line:
Human hepatocyte Huh7 cells containing the monocistronic NK5.1 replicon were obtained from Ralf Bartenschlager at the University of Mainz, Germany. These cells were maintained under hygromycin selection and passaged when 80-90% confluent.
This cell line contains an autonomously replicating RNA element (replicon) incorporating the non-structural HCV elements necessary for replication, and upon which the survival of the replicon in the cell depends. This replicon contains a single internal ribosome entry site (HCV IRES). Inhibition of any of the critical HCV finctions by a compound leads to loss of the replicon as measured by HCV replicon RNA copy number reduction. The amount of HCV RNA present following a standard incubation with a compound is a measure of the anti-HCV activity of the compound. The assay was conducted by preparing sufficient 96-well plates containing these cells, wherein cells are seeded at 6000 cells/well in a 96-well plate, in 200 μl of final media volume. Cells were then incubated for 24 hours at 37 C., 5% CO2, and 95% humidity before compound was added. Six point half-log concentration response assays were conducted to determine potency/EC50 of Formula I compounds to inhibit HCV replicon replication. The final percent DMSO acceptable in this assay system is 0.6%. Compounds were diluted in media in an appropriate format and 5 μl of each drug dilution is added to each well. Cells were then incubated with compounds for 3 days at 37 C., 5% CO2, and 95% humidity. Following the three day incubation period, plates were washed twice with phosphate buffered saline to remove media and cells were lysed with Qiagen extraction buffer. RNA was extracted and isolated with the Qiagen RNAeasy kit according to the manufacturer's protocol (Qiagen). TaqMan One-Step RT-PCR was used in conjunction with an ABI 7700 Sequence Detector (Applied Biosystems) for the quantitation and analysis of HCV replicon RNA copy number. A GAPDH probe was used for internal normalization. The ratio of HCV RNA to cellular GAPDH RNA was determined and compared to the DMSO-only treated control, and the ratio of HCV RNA/GAPDH RNA was used for an EC50 determination and as a measure of specificity for inhibition of the HCV replicon.

Row | SMILES | EC50 [µM]
1 | Cc1cc(-c2c(O)ccc3ccccc23)nn1-c1ccccc1[N+](=O)[O-] [Compound 1, 1-[5-Methyl-1-(2-nitro-phenyl)-1 H-pyrazol-3-yl]-naphthalen-2-ol] | > 32
2 | Cc1cc(-c2ccccc2O)nn1-c1ccccc1[N+](=O)[O-] [Compound 2, 2-[5-Methyl-1-(2-nitro-phenyl)-1H-pyrazol-3-yl]-phenol] | > 32
3 | Cc1cc(-c2ccccc2O)n(-c2ccccc2[N+](=O)[O-])n1 [Compound 3, 2-[5-Methyl-2-(2-nitro-phenyl)-2H-pyrazol-3-yl]-phenol] | 31
4 | Cc1cc(-c2c(O)ccc3ccccc23)nn1-c1ccccc1 [Compound 4, 1-(5-Methyl-1-phenyl-1H-pyrazol-3-yl)-naphthalen-2-ol] | > 19
5 | Cc1cc(-c2c(O)ccc3ccccc23)nn1-c1ccccc1C(F)(F)F [Compound 5, 1-[5-Methyl-1-(2-trifluoromethyl-phenyl)-1H-pyrazol-3-yl]-naphthalen-2-ol] | > 19
6 | Cc1cc(-c2c(O)ccc3ccccc23)n(-c2ccccc2C(F)(F)F)n1 [Compound 6, 1-[5-Methyl-2-(2-trifluoromethyl-phenyl)-2H-pyrazol-3-yl]-naphthalen-2-ol] | 13
7 | Cc1cc(-c2ccccc2O)nn1-c1ccccc1C(F)(F)F [Compound 7, 2-[5-Methyl-i-(2-trifluoromethyl-phenyl)-1H-pyrazol-3-yl]-phenol] | 20
8 | COc1ccc(-n2nc(-c3c(O)ccc4ccccc34)cc2C)cc1 [Compound 8] | > 19
9 | Cc1cc(-c2ccc3ccccc3c2O)n(-c2ccccn2)n1 [Compound 9, 2-(5-Methyl-2-pyridin-2-yl-2H-pyrazol-3-yl)-naphthalen-1-ol] | > 19
10 | Cc1cc(-c2cc(C)c(C)cc2O)n(-c2ccccc2C)n1 [Compound 10, 4,5-Dimethyl-2-(5-methyl-2-o-tolyl-2H-pyrazol-3-yl)-phenol] | > 19
11 | Cc1cc(-c2ccccc2O)nn1-c1ccccc1 [Compound 11, 2-(5-Methyl-1-phenyl-1H-pyrazol-3-yl)-phenol] | 9
12 | Cc1cc(-c2ccc3ccccc3c2O)nn1-c1ccccc1[N+](=O)[O-] [Compound 12, 2-[5-Methyl-1-(2-nitro-phenyl)-1H-pyrazol-3-yl]-naphthalen-1-ol] | 13
13 | Cc1cc(-c2c(O)ccc3ccccc23)nn1-c1ccc(C(C)C)cc1 [Compound 13, 1-[1-(4-Isopropyl-phenyl)-5-methyl-1H-pyrazol-3-yl]-naphthalen-2-ol] | > 19
14 | COc1ccc(-n2nc(-c3ccccc3O)cc2C)cc1 [Compound 14, 2-[1-(4-Methoxy-phenyl)-5-methyl-1H-pyrazol-3-yl]-phenol] | 11
15 | Cc1cc(O)c(-c2cc(C)n(-c3ccccc3F)n2)cc1C [Compound 15, 2-[1-(2-Fluoro-phenyl)-5-methyl-1H-pyrazol-3-yl]-4,5-dimethyl-phenol] | > 19
16 | Cc1cc(-c2ccc3ccccc3c2O)nn1-c1ccccc1C(F)(F)F [Compound 16, 2-[5-Methyl-1-(2-trifluoromethyl-phenyl)-1H-pyrazol-3-yl]-naphthalen-1-ol] | 17
17 | Cc1cc(O)c(-c2cc(C)n(-c3ccccc3)n2)cc1C [Compound 17, 4,5-Dimethyl-2-(5-methyl-1-phenyl-1H-pyrazol-3-yl)-phenol] | > 19
18 | Cc1cc(-c2c(O)ccc3ccccc23)nn1-c1ccc(Cl)cc1 [Compound 18, 1-[1-(4-Chloro-phenyl)-5-methyl-1H-pyrazol-3-yl]-naphthalen-2-ol] | 18
19 | Cc1cc(-c2ccc3ccccc3c2O)n(-c2ccc(Cl)cc2)n1 [Compound 19, 2-[2-(4-Chloro-phenyl)-5-methyl-2H-pyrazol-3-yl]-naphthalen-1-ol] | 17
20 | Cc1cc(-c2c(O)ccc3ccccc23)nn1-c1ncc(C(F)(F)F)cc1Cl [Compound 20, 1-[1-(3-Chloro-5-trifluoromethyl-pyridin-2-yl)-5-methyl-1H-pyrazol-3-yl]-naphthalen-2-ol] | 13
21 | Cc1cc(O)c(-c2cc(C)n(-c3ccc(Cl)cc3)n2)cc1C [Compound 22, 2-[1-(4-Chloro-phenyl)-5-methyl-1H-pyrazol-3-yl]-4,5-dimethyl-phenol] | > 19
22 | Cc1cc(O)c(-c2cc(C)n(-c3nc4ccccc4s3)n2)cc1C [Compound 23, 2-(l-Benzothiazol-2-yl-5-methyl-1H-pyrazol-3-yl)-4,5-dimethyl-phenol] | > 19

Row | SMILES | EC50 [µM]
23 | Cc1cc(O)c(-c2cc(C)n(-c3ccccc3C(F)(F)F)n2)cc1C [Compound 24, 4,5-Dimethyl-2-[5-methyl-i-(2-trifluoromethyl-phenyl)-1H-pyrazol-3-yl]-phenol] | > 19
24 | Cc1cc(-c2c(O)ccc3ccccc23)nn1-c1ncccc1[N+](=O)[O-] [Compound 25, 1-[5-Methyl-1-(3-nitro-pyridin-2-yl)-1H-pyrazol-3-yl]-naphthalen-2-ol] | > 19
25 | Cc1cc(-c2c(O)ccc3ccccc23)nn1-c1ncccc1C(F)(F)F [Compound 26, 1-[5-Methyl-1-(3-trifluoromethyl-pyridin-2-yl)-1H-pyrazol-3-yl]-naphthalen-2-ol] | > 19
26 | Cc1cc(C(F)(F)F)cc(-n2nc(-c3c(O)ccc4ccccc34)cc2C)n1 [Compound 27, 1-[5-Methyl-i-(6-methyl-4-trifluoromethyl-pyridin-2-yl)-1 H-pyrazol-3-yl]-naphthalen-2-ol] | 12
27 | Cc1cc(-c2c(O)ccc3ccccc23)nn1-c1ccccn1 [Compound 28, 1-(5-Methyl-1-pyridin-2-yl-1H-pyrazol-3-yl)-naphthalen-2-ol] | > 19
28 | Cc1cc(-c2ccc3ccccc3c2O)nn1-c1ccc(C(C)C)cc1 [Compound 29, 2-[1-(4-Isopropyl-phenyl)-5-methyl-1H-pyrazol-3-yl]-naphthalen-1-ol] | > 19
29 | Cc1cc(O)c(-c2cc(C)n(-c3ccc(C(C)C)cc3)n2)cc1C [Compound 30, 2-[1-(4-Isopropyl-phenyl)-5-methyl-1H-pyrazol-3-yl]-4,5-dimethyl-phenol] | 12
30 | COc1ccccc1-c1ccn(-c2ccccc2[N+](=O)[O-])n1 [Compound 31, 3-(2-Methoxy-phenyl)-1-(2-nitro-phenyl)-1H-pyrazole] | 21
31 | COc1ccccc1-c1ccnn1-c1ccccc1[N+](=O)[O-] [Compound 32, 5-(2-Methoxy-phenyl)-1-(2-nitro-phenyl)-1H-pyrazole] | 3.6
32 | Oc1ccccc1-c1ccnn1-c1ccccc1F [Compound 35, 2-[2-(2-Fluoro-phenyl)-2H-pyrazol-3-yl]-phenol] | 14
33 | COc1ccccc1-c1ccn(-c2ncccc2[N+](=O)[O-])n1 [Compound 36, 2-[3-(2-Methoxy-phenyl)-pyrazol-1-yl]-3-nitro-pyridine] | 2.3
34 | COc1ccccc1-c1ccnn1-c1ncccc1[N+](=O)[O-] [Compound 37, 2-[5-(2-Methoxy-phenyl)-pyrazol-1-yl]-3-nitro-pyridine] | > 32
35 | COc1ccccc1-c1ccn(-c2ncccc2C(F)(F)F)n1 [Compound 38, 2-[3-(2-Methoxy-phenyl)-pyrazol-1-yl]-3-trifluoromethyl-pyridine] | 13
36 | COc1ccccc1-c1ccn(-c2ccccn2)n1 [Compound 39, 2-[3-(2-Methoxy-phenyl)-pyrazol-1-yl]-pyridine] | > 32
37 | COc1ccccc1-c1ccnn1-c1ccccn1 [Compound 40, 2-[5-(2-Methoxy-phenyl)-pyrazol-1-yl]-pyridine] | > 32
38 | O=[N+]([O-])c1cccnc1-n1ccc(-c2ccccc2O)n1 [Compound 41, 2-[1-(3-Nitro-pyridin-2-yl)-1H-pyrazol-3-yl]-phenol] | 6
39 | Oc1ccccc1-c1ccn(-c2ncccc2C(F)(F)F)n1 [Compound 42, 2-[1-(3-Trifluoromethyl-pyridin-2-yl)-1H-pyrazol-3-yl]-phenol] | 6
40 | Oc1ccccc1-c1ccn(-c2ccccn2)n1 [Compound 43, 2-(1-Pyridin-2-yl-1H-pyrazol-3-yl)-phenol] | 15
41 | Oc1ccccc1-c1ccnn1-c1ccccn1 [Compound 44, 2-(2-Pyridin-2-yl-2H-pyrazol-3-yl)-phenol] | > 32
42 | COc1ccc(-c2ccn(-c3ncccc3[N+](=O)[O-])n2)c(F)c1 [Compound 45, 2-[3-(2-Fluoro-4-methoxy-phenyl)-pyrazol-1-yl]-3-nitro-pyridine] | 5.8
43 | COc1ccc(-c2ccnn2-c2ncccc2[N+](=O)[O-])c(F)c1 [Compound 46, 2-[5-(2-Fluoro-4-methoxy-phenyl)-pyrazol-1-yl]-3-nitro-pyridine] | 6
